Numbers after ± are expanded uncertainties.
Settings: 101.33 kPa, Liquid; for speed of sound: Sing-around technique in a fixed-path interferometer; for mass density: Vibrating tube method

Row | speed of sound (293.15 K) | mass density (293.15 K) | speed of sound (298.15 K) | mass density (298.15 K) | speed of sound (303.15 K) | mass density (303.15 K) | Compound
1 | 1397.1 ± 1.2 m/s | 829.95 ± 0.24 kg/m3 | 1380.3 ± 1.2 m/s | 826.95 ± 0.24 kg/m3 | 1364.1 ± 1.2 m/s | 823.15 ± 0.24 kg/m3 | CCCCCCCCCCO [decan-1-ol]
2 | 1256.2 ± 0.7 m/s | 809.89 ± 0.12 kg/m3 | 1239.6 ± 0.7 m/s | 806.47 ± 0.12 kg/m3 | 1223.8 ± 0.7 m/s | 802.22 ± 0.12 kg/m3 | CCCCO [butan-1-ol]
3 | 1118 ± 1 m/s | 791.55 ± 0.12 kg/m3 | 1101.4 ± 0.6 m/s | 787.2 ± 0.12 kg/m3 | 1086.6 ± 0.6 m/s | 782.44 ± 0.12 kg/m3 | CO [methanol]
4 | 1259.4 ± 1.2 m/s | 906.73 ± 0.23 kg/m3 | 1239.9 ± 1.2 m/s | 902.88 ± 0.23 kg/m3 | 1221.8 ± 1.2 m/s | 897.22 ± 0.23 kg/m3 | CCOCCOCCOCC [diethylene glycol diethyl ether]

Reference: the NIST ThermoML archive (doi:10.1016/j.jct.2012.12.007)
